Tests used:
Type in all cases: cell-based
HEK293T cells [1] = assay: cell viability (CellTiter 96 Aqueous One); settings: 24 h
Experimental: (§1) Fig. 4 CH004 arrests the cell cycle at the S phase. a CH004 reduces the cell viability of HEK293T and HepG2 cells. HEK293T or HepG2 cells were treated with indicated concentrations of CH004 for 24 h before the cell number was analyzed using the CellTiter96® Aqueous One Solution Cell Proliferation Assay (Promega, Materials and Methods). The means at each concentration of one representative experiment are shown as percentages of DMSO (control, 100%). Means ± SDs (n = 3). b Overexpression of hCBS or knock-down of hCBS counteracts the growth inhibition exerted by CH004 in HEK293T cells. Indicated HEK293T stable cell lines were treated with the CH004 or DMSO for 24 h. Then, the cell viability was quantified with the CellTiter 96® Aqueous One Solution Cell Proliferation Assay under the standard protocol (Promega). […] The efficacy for CBS overexpression and knock-down in HEK293T cells was determined by Western blotting using an anti-CBS antibody (3E1, 1:2000; Abnova). c CH004 induces cell death in HEK293T and HepG2 cells. […] HEK293T cells were incubated with indicated compounds for 12 h, and the DNA content was quantified with propidium iodide to analyze the cell cycle distribution by flow cytometry (e). The cell cycle distributions for HEK293T-shNT and HEK293T-shCBS cells were accordingly analyzed and are shown in f. […]

[2] = tested on: HEK293T cells expressing CBS Q222A mutant; assay: cell viability of HEK293T stable line expressing CBS Q222A; settings: 10 µM, 24 h
Experimental: Figure S15. The mode of actions for CH004 in cells. […] Indicated HEK293T stable cell lines were treated with CH004 at a concentration of 10 µM for 24 h, and the cell viability was then measured using the CellTiter96® Aqueous One Solution Cell Proliferation Assay (Promega). Means ± SDs (n=3). (B-C) CH004 or erastin triggers ferroptosis in mouse embryonic fibroblasts (MEF). WT MEF cells were treated with CH004 or erastin at indicated concentrations in the presence or the absence of 500 µM DFO for 24 h before measuring the lipid ROS with 2 μM BODIPY® 581/591 C11 (Materials and methods). […] Erastin at micromolar concentrations were incubated with HepG2 cells for 24 h before measuring the lipid ROS (see above and Materials and methods). […] Means ± SDs (n=3). […] CH004 or erastin at a concentration of 20 µM was incubated with HepG2 cells for 48 h or 72 h in the presence or the absence of 100 µM DFO. The cell viability was accordingly quantified using the CellTiter96® Aqueous One Solution Cell Proliferation Assay (Promega) and the results were shown as percentages of DMSO (control, 100%). Means ± SDs (n=3). All the experiments were independently repeated at least twice and one representative result is present. Table S1 The inhibitory effects of CH004 on purified hCBS, hCSE and hDDC.

HEK293T cells [3] = assay: cell death, FITC Annexin V kit, flow cytometry; settings: 40 μM, 12 h
Experimental: as §1

Question: With Cn1nc(Cc2ccccc2)nc2c(=O)n(C)c(=O)nc1-2 [CH004, 3-benzyl-1,6-dimethylpyrimido[5,4-e][1,2,4]triazine-5,7(1H,6H)-dione] as the compound, how does the IC50 (HEK293T cells [1]) read?
Answer: Its IC50 is about 17 µM.

Question: And the IC50 (HEK293T cells [1]; Homo sapiens, HEK-293T)?
Answer: The IC50 was 16.6 ± 5.3 µM.

Question: And the “cell death triggered by CH004 in cells expressing CH004-insensitive CBS Q222A” value [2]?
Answer: The value was “partially rescues”.

Question: And the “increase in cell death” value (HEK293T cells [3])?
Answer: Its value is ~ 30%.

Source: PMC6158189, “A pharmacological probe identifies cystathionine β-synthase as a new negative regulator for ferroptosis” (Cell Death & Disease, 2018)
